{
  "source": "patent US20110166223A1",
  "about": "“METHODS OF INHIBITING FGFR3 SIGNALING” (CEDARS-SINAI MEDICAL CENTER, priority 2008, published 2011)",
  "key": {"[1]": {"test_system": "ERK MAP kinase phosphorylation in KMS11 and OPM2 cells", "experiment": "FGF2-mediated ERK MAP kinase phosphorylation by western blotting in MM cell lines", "assay_type": "cell-based", "settings": "NF449 one hour before FGF2, FIG. 3a", "experimental": "FIG. 3, in accordance with an embodiment herein, depicts 4,4′,4″,4′″-[carbonyl-bis[imino-5,1,3-benzenetriyl bis-{carbonylimino}]]tetrakis-{benzene-1,3-disulfonic acid} inhibits FGF2/FGFR3 signaling in MM cell lines OPM2 and KMS11. (a) KMS11 and OPM2 cells were serum-starved for 12 hours, treated with 4,4′,4″,4′″-[carbonyl-bis[imino-5,1,3-benzenetriyl bis-{carbonylimino}]]tetrakis-{benzene-1,3-disulfonic acid} for one hour before the treatment with FGF2 and the levels of ERK MAP kinase phosphorylation were determined by western blotting with the P-ERK1/2(Thr^202/Tyr^204) antibody. As a loading control, the membranes were reprobed with antibody recognizing ERK regardless of its phosphorylation. […] (b) The OPM2 cells were serum starved for 12 hours, pre-treated with 4,4′,4″,4′″-[carbonyl-bis[imino-5,1,3-benzenetriyl bis-{carbonylimino}]]tetrakis-{benzene-1,3-disulfonic acid} for one hour before FGF2 treatment, and analyzed for CCL3 and CCL4 expression by real-time RT-PCR as described herein. The results are expressed as the fold difference relative to control (2^ddCt). […]\nSince MM represents another area of pathological FGFR3 signaling in viva, the inventors evaluated whether NF449 inhibits FGFR3 signaling in KMS11 and OPM2 MM cell lines. […]"}, "[2]": {"molecular_target": "GSA subunit (Homo sapiens, UniProt P63092)", "sequence (P63092 whole entry)": "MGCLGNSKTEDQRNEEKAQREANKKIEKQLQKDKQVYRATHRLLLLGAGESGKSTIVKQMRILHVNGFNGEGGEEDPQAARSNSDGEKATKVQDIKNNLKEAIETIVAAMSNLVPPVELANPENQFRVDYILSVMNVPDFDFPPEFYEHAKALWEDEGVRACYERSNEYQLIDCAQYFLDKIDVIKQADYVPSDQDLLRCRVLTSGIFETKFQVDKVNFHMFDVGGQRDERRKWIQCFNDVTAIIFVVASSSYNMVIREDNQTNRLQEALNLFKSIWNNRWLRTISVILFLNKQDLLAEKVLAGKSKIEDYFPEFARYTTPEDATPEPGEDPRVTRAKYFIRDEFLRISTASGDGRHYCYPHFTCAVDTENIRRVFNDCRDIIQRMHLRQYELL", "settings": "Hohenegger, et al., 1998; cited from earlier work"}},
  "data": [
    {"compound": "O=C(Nc1cc(C(=O)Nc2ccc(S(=O)(=O)O)cc2S(=O)(=O)O)cc(C(=O)Nc2ccc(S(=O)(=O)O)cc2S(=O)(=O)O)c1)Nc1cc(C(=O)Nc2ccc(S(=O)(=O)O)cc2S(=O)(=O)O)cc(C(=O)Nc2ccc(S(=O)(=O)O)cc2S(=O)(=O)O)c1", "note": "[NF449, 4,4′,4″,4′″-[carbonyl-bis[imino-5,1,3-benzenetriylbis-{carbonylimino}]]tetrakis-{benzene-1,3-disulfonic acid}]", "values": [
      {"measurement": "FGF2-mediated Thr202/Tyr204 phosphorylation of ERK", "setting": "[1]", "value": "almost completely blocked"},
      {"measurement": "FGF2-mediated Thr202/Tyr204 phosphorylation of ERK", "setting": "[1]; listed as 4,4′,4″,4′″-[carbonyl-bis[imino-5,1,3-benzenetriyl bis-{carbonylimino}]]tetrakis", "value": "inhibited"},
      {"measurement": "concentration needed to inhibit GSA", "setting": "[2]", "value": 0.14, "unit": "µM"}
    ]}
  ]
}
